The values that follow come from patent publication US6713645B1, “Substituted tricyclics” (Eli Lilly and Company, priority 1996, dated 2004).

One may read the melting point as the temperature of the solid-liquid transition.

The structures appear in SMILES notation.

`COc1cc(OCC(=O)[O-])c2c3c(n(Cc4ccccc4)c2c1)CCCC3C(N)=O.[Na+]` (stereo not drawn) displayed a melting point of 251 to 254 °C.

Compound `COc1cc(OC)c2c3c(n(Cc4ccccc4)c2c1)CCCC3C(=O)NN` (stereo not drawn) [Example 1, 9-benzyl-5,7-dimethoxy-1,2,3,4-tetrahydrocarbazole-4-carboxylic acid hydrazide] displayed a melting point of 189 to 190 °C.

`COc1cc(OC)c2c3c(n(Cc4ccccc4)c2c1)CCCC3C(N)=O` (stereo not drawn) [Example 2, 9-benzyl-5,7-dimethoxy-1,2,3,4-tetrahydrocarbazole-4-carboxamide] showed a melting point of 190 to 192 °C.

The compound `COc1cc(OC(C)C(=O)O)c2c3c(C(N)=O)cccc3n(Cc3ccccc3)c2c1` (stereo not drawn) [Example 5, methyl [9-benzyl-4-carbamoyl-7-methoxycarbazol-5-yl]oxyacetic acid] gave a melting point of 170 to 172 °C.

`Cc1ccc(OCC(=O)O)c2c3c(C(N)=O)cccc3n(Cc3ccccc3)c12` [Example 50, [9-benzyl-5-carbamoyl-1-methylcarbazol-4-yl]oxyacetic acid] gave a melting point of 253 to 254 °C.

For the compound `NC(=O)c1cccc2c1c1c(OCC(=O)O)ccc(Cl)c1n2Cc1ccccc1` [Example 54, [9-benzyl-5-carbamoyl-1-chlorocarbazol-4-yl]oxyacetic acid], the melting point was in the range of 240 to 242 °C.
